Measurements as given in ChEMBL document CHEMBL3124799, “Discovery of 1,3,4-oxidiazole scaffold compounds as inhibitors of superoxide dismutase expression” (Bioorg Med Chem Lett, 2014).
The source made the active and inactive calls. The rule behind the calls is not given here.

What was measured:
Fibroblast [1] = assay: Relative expression of human SOD1 expressed in mouse fibroblasts at 10 uM after 48 hrs by ELISA
Fibroblast [2] = assay: Inhibition of human SOD1 expressed in mouse fibroblasts at 10 uM after 48 hrs by ELISA relative to control; type: functional
Fibroblast [3] = assay: Inhibition of human SOD1 expressed in mouse fibroblasts after 48 hrs by ELISA relative to control; type: functional, cell-based
[4] = Drug uptake in serum of mouse expressing SOD1 G93A mutant at 10 mg/kg, ip after 4 hrs; type: ADME, organism-based; parameters: dose 10 mg/kg, route intraperitoneal; conditions: read-out: Drug uptake
[5] = Drug uptake in brain of mouse expressing SOD1 G93A mutant at 10 mg/kg, ip after 2 hrs; type: ADME, organism-based; parameters: dose 10 mg/kg, route intraperitoneal; conditions: read-out: Drug uptake
[6] = Drug uptake in spinal cord of mouse expressing SOD1 G93A mutant at 10 mg/kg, ip after 2 hrs; type: ADME, organism-based; parameters: dose 10 mg/kg, route intraperitoneal; conditions: read-out: Drug uptake
[7] = Drug uptake in serum of mouse expressing SOD1 G93A mutant at 10 mg/kg, ip after 2 hrs; type: ADME, organism-based; parameters: dose 10 mg/kg, route intraperitoneal; conditions: read-out: Drug uptake
[8] = Drug uptake in brain of nontransgenic mouse at 10 mg/kg, ip after 4 hrs
Brain = assay: Drug uptake in brain of nontransgenic mouse at 10 mg/kg, ip after 24 hrs; conditions: in vivo
[9] = Drug uptake in serum of nontransgenic mouse at 10 mg/kg, ip after 24 hrs
[10] = Drug uptake in spinal cord of nontransgenic mouse at 10 mg/kg, ip after 4 hrs
[11] = Drug uptake in spinal cord of nontransgenic mouse at 10 mg/kg, ip after 24 hrs
Mus musculus [12] = assay: Reduction in SOD1 G93A mutant expression in cerebral cortex of mouse at 20 mg/kg, ip administered every alternate day for 26 days; type: functional, organism-based; parameters: dose 20 mg/kg
Mus musculus [13] = assay: Reduction in SOD1 G93A mutant expression in brain stem of mouse at 20 mg/kg, ip administered every alternate day for 26 days; type: functional, organism-based; parameters: dose 20 mg/kg
Mus musculus [14] = assay: Reduction in SOD1 G93A mutant expression in cerebellum of mouse at 20 mg/kg, ip administered every alternate day for 26 days; type: functional, organism-based; parameters: dose 20 mg/kg
Mus musculus [15] = assay: Reduction in SOD1 G93A mutant expression in spinal cord of mouse assessed as at 20 mg/kg, ip administered every alternate day for 26 days; type: functional, organism-based; parameters: dose 20 mg/kg
[16] = Drug uptake in serum of mouse expressing SOD1 G93A mutant at 20 mg/kg, ip after 24 hrs; type: ADME, organism-based; parameters: dose 20 mg/kg, route intraperitoneal; conditions: read-out: Drug uptake
[17] = Drug uptake in spinal cord of mouse expressing SOD1 G93A mutant at 20 mg/kg, ip after 24 hrs; type: ADME, organism-based; parameters: dose 20 mg/kg, route intraperitoneal; conditions: read-out: Drug uptake
[18] = Drug uptake in brain of mouse expressing SOD1 G93A mutant at 20 mg/kg, ip after 24 hrs; type: ADME, organism-based; parameters: dose 20 mg/kg, route intraperitoneal; conditions: read-out: Drug uptake
[19] = Drug uptake in serum of mouse expressing SOD1 G93A mutant at 20 mg/kg, ip after 1 hr; type: ADME, organism-based; parameters: dose 20 mg/kg, route intraperitoneal; conditions: read-out: Drug uptake
[20] = Drug uptake in spinal cord of mouse expressing SOD1 G93A mutant at 20 mg/kg, ip after 1 hr; type: ADME, organism-based; parameters: dose 20 mg/kg, route intraperitoneal; conditions: read-out: Drug uptake
[21] = Drug uptake in brain of mouse expressing SOD1 G93A mutant at 20 mg/kg, ip after 1 hr; type: ADME, organism-based; parameters: dose 20 mg/kg, route intraperitoneal; conditions: read-out: Drug uptake
[22] = Mus musculus, Fibroblast, 48 h, read-out: IC50

Clc1ccc(CSc2nnc(-c3ccncc3)o2)cc1
relative SOD1 expression at 10 µM (Fibroblast [1]): 123%

Ic1ccc(CSc2nnc(-c3ccncc3)o2)cc1
relative SOD1 expression at 10 µM (Fibroblast [1]): 69%

c1cncc(CSc2nnc(-c3ccncc3)o2)c1
inhibition (Fibroblast [2]): inactive

Brc1ccc(CSc2nnc(-c3cccnc3)o2)cc1
relative SOD1 expression at 10 µM (Fibroblast [1]): 68.6%

c1ccc(CSc2nnc(-c3ccncc3)o2)cc1
relative SOD1 expression at 10 µM (Fibroblast [1]): 133%

O=[N+]([O-])c1ccc(CSc2nnc(-c3ccncc3)o2)cc1
relative SOD1 expression at 10 µM (Fibroblast [1]): 102%

c1cc(CSc2nnc(-c3ccncc3)o2)ccn1
inhibition (Fibroblast [2]): inactive

O=C(CCl)c1cc(Br)c(Br)s1
IC50 (Fibroblast [3]; [22]): 650 nM

Clc1cccc(CSc2nnc(-c3ccncc3)o2)c1
relative SOD1 expression at 10 µM (Fibroblast [1]): 96%

Cn1cc(C2=C(c3ccc(Cl)cc3Cl)C(=O)NC2=O)c2ccccc21 [SB-216763]
IC50 (Fibroblast [3]; [22]): 3000 nM

FC(F)(F)c1ccc(CSc2nnc(-c3ccncc3)o2)cc1
relative SOD1 expression at 10 µM (Fibroblast [1]): 157%

O=C1NC(=O)C(c2cn(CCCO)c3ncccc23)=C1c1cnccn1
IC50 (Fibroblast [3]; [22]): 10000 nM

Brc1ccc(CSc2nnc(-c3ccncc3)o2)cc1
relative SOD1 expression at 10 µM (Fibroblast [1]): 103%

Cc1ccc(CSc2nnc(-c3ccncc3)o2)cc1
relative SOD1 expression at 10 µM (Fibroblast [1]): 126%

COc1ccc(CSc2nnc(-c3ccncc3)o2)cc1
inhibition (Fibroblast [3]): Dose-dependent effect
concentration at 4 h [4]: 334 nM
concentration at 2 h [5]: 29 nM
concentration at 2 h [6]: 57 nM
concentration at 2 h [7]: 153 nM
concentration at 4 h [8]: 47 nM
Drug uptake (Brain): Not Active
concentration at 24 h [9]: 123 nM
concentration at 4 h [10]: 162 nM
concentration at 24 h [11]: 113 nM
relative SOD1 expression at 10 µM (Fibroblast [1]): 47%

O=[N+]([O-])c1cccc(CSc2nnc(-c3ccncc3)o2)c1
relative SOD1 expression at 10 µM (Fibroblast [1]): 117%

Ic1cccc(CSc2nnc(-c3ccncc3)o2)c1
inhibition (Fibroblast [3]): Dose-dependent effect
IC50 (Fibroblast [3]; [22]): 625 nM
inhibition (Mus musculus [12]): Active
inhibition (Mus musculus [13]): Active
inhibition (Mus musculus [14]): Active
inhibition (Mus musculus [15]): Active
concentration at 24 h [16]: 73 nM
concentration at 24 h [17]: 855 nM
concentration at 24 h [18]: 77 nM
concentration at 1 h [19]: 672 nM
concentration at 1 h [20]: 4 µM
concentration at 1 h [21]: 944 nM

Brc1cccc(CSc2nnc(-c3ccncc3)o2)c1
relative SOD1 expression at 10 µM (Fibroblast [1]): 91%

COc1cccc(CSc2nnc(-c3ccncc3)o2)c1
inhibition (Fibroblast [3]): Dose-dependent effect
relative SOD1 expression at 10 µM (Fibroblast [1]): 50%

Fc1ccc(CSc2nnc(-c3ccncc3)o2)cc1
relative SOD1 expression at 10 µM (Fibroblast [1]): 86%

O=C1Cc2c([nH]c3ccc(Br)cc23)-c2ccccc2N1 [KENPAULLONE]
IC50 (Fibroblast [3]; [22]): 10000 nM

CCCCc1c(-c2ccc(O)cc2)[nH]c2nccnc12 [ALOISINE A]
IC50 (Fibroblast [3]; fibroblast): Not Active
